# Experimental data as given in patent US6737383B1, “Herbicidal oxadiazolidines” (priority 1999, dated 2004).
# Assays:
# winter wheat [1] = test: Test E winter wheat; format: in vivo, Triticum aestivum; conditions: Postemergence
# Protocol: […] All plant species were grown using normal greenhouse practices. Crop and weed species include annual bluegrass (Poa annua), blackgrass (Alopecurus myosuroides), black nightshade (Solanum nigra), chickweed (Stellaria media), common poppy (Papaver rhoeas), deadnettle (Lamium amplexicaule), downy brome (Bromus tectorum), field violet (Viola arvensis), galium (Galium aparine), green foxtail (Setaria viridis), Italian ryegrass (Lolium multiflorum), jointed goatgrass (Aegilops cylindrica), kochia (Kochia scoparia), lambsquarters (Chenopodium album), littleseed canarygrass (Phalaris minor), rape (Brassica napus), redroot pigweed (Amaranthus retroflexus), Russian thistle (Salsola kali), scentless chamomile (Matricaria inodora), spring barley (Hordeum vulgare), sugar beet (Beta vulgaris), sunflower (Helianthus annuus), ivyleaf speedwell (Veronica hederaefolia), spring wheat (Triticum aestivum), winter wheat (Triticum aestivum), wild buckwheat (Polygonum convolvulus), wild mustard (Sinapis arvensis), wild oat (Avena fatua), windgrass (Apera spica-venti) and winter barley (Hordeum vulgare).
# Treated plants and untreated controls were maintained in a greenhouse for approximately 21 to 28 days, after which all treated plants were compared to untreated controls and visually evaluated. […] A dash response (-) means no test result.
# winter wheat [2] = test: Test E winter wheat; format: in vivo, Triticum aestivum; conditions: Preemergence
# wheat = test: Test B pre/postemergence wheat; format: in vivo, Triticum aestivum
# In short: (§1)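 Response is a visual 0-to-10 score relative to untreated plants, where 0 means no effect and 10 means complete control, taken twelve to sixteen days after application. Treatments went onto soil at planting and onto foliage of 1- to 4-leaf plants, using a surfactant-containing non-phytotoxic solvent.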
# wild oat = test: Test E wild oat; format: in vivo, Avena fatua; conditions: Preemergence
# rape = test: Test B pre/postemergence rape; format: in vivo, Brassica napus
# In short: as §1
# green foxtail = test: Test E green foxtail; format: in vivo, Setaria viridis; conditions: Preemergence
# blackgrass = test: Test E blackgrass; format: in vivo, Alopecurus myosuroides; conditions: Preemergence
# Italian ryegrass = test: Test E Italian ryegrass; format: in vivo, Lolium multiflorum; conditions: Preemergence
# morningglory = test: Test B pre/postemergence morningglory; format: in vivo, Ipomoea hederacea
# In short: as §1
# winter barley = test: Test E winter barley; format: in vivo, Hordeum vulgare; conditions: Preemergence
# duck salad = test: Test B flood test duck salad; format: in vivo, Heteranthera limosa
# In short: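 Each value is a visual injury score relative to controls, with 10 meaning complete control and 0 no effect. Evaluation took place twelve to sixteen days after the 2-leaf-stage plants were treated and kept in the greenhouse.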
# [3] = Rate 500 g/ha, 0 to 100 scale where 0 is no effect and 100 is complete control
# [4] = Rate 1000 g/ha, 0 to 100 scale where 0 is no effect and 100 is complete control
# [5] = Postemergence, Rate 62 g/ha, scale 0 to 10, 0 is no effect, 10 is complete control
# [6] = Postemergence, Rate 250 g/ha, scale 0 to 10, 0 no effect, 10 complete control
# [7] = Preemergence, Rate 62 g/ha, scale 0 to 10 (0 no effect, 10 complete control)
# [8] = Preemergence, Rate 125 g/ha, scale 0 to 10 (0 no effect, 10 complete control)
# [9] = Preemergence, Rate 250 g/ha, scale of 0 to 10 where 0 is no effect and 10 is complete control
# [10] = Preemergence, Rate 500 g/ha, scale 0 (no effect) to 10 (complete control)
# [11] = Rate 125 g/ha, Postemergence, scale 0 to 10, 0 no effect, 10 complete control
# [12] = Rate 500 g/ha, Postemergence, scale 0 to 10, 0 no effect, 10 complete control
# [13] = Rate 31 g/ha, 0 to 100 scale, 0 no effect, 100 complete control
# [14] = Rate 62 g/ha, 0 to 100 scale, 0 no effect, 100 complete control
# [15] = Postemergence, Rate 125 g/ha, scale of 0 to 10 where 0 is no effect and 10 is complete control
# [16] = Preemergence, Rate 125 g/ha, 0 is no effect, 10 is complete control
# [17] = Preemergence, Rate 62 g/ha, scale of 0 to 10 where 0 is no effect and 10 is complete control
# [18] = Preemergence, Rate 250 g/ha, scale 0 to 10, 0 is no effect, 10 is complete control
# [19] = Preemergence, Rate 500 g/ha, scale of 0 to 10 where 0 is no effect and 10 is complete control
# [20] = Rate 62 g/ha, Postemergence, scale of 0 to 10 where 0 is no effect and 10 is complete control
# [21] = Rate 125 g/ha, Postemergence, scale 0 to 10
# [22] = Rate 500 g/ha, Postemergence, scale 0 to 10
smiles,measurement,setting,value
Cc1ccccc1-n1c(=O)on(C(=O)N(c2cc(F)cc(F)c2)C(C)C)c1=O [Compound 67],"Plant response rating, Wheat (winter)","winter wheat [1]; Rate 250 g/ha, 0 to 100 scale (0 no effect, 100 complete control)",20
same,"Plant response rating, Wheat (winter)","winter wheat [1]; Rate 1000 g/ha, 0 to 100 scale, 0 is no effect and 100 is complete control",40
same,"Plant response rating, Wheat (winter)","winter wheat [1]; Rate 500 g/ha, 0 to 100 scale, 0 no effect, 100 complete control",30
same,"Plant response rating, Wheat (winter)","winter wheat [2]; Rate 250 g/ha, 0 to 100 scale",10
same,"Plant response rating, Wheat (winter)",winter wheat [2]; [3],10
same,"Plant response rating, Wheat (winter)",winter wheat [2]; [4],20
same,Wheat plant response rating,wheat; [5],0
same,Wheat plant response rating,wheat; [6],0
same,Wheat plant response rating,wheat; [7],0
same,"Plant response rating, Wheat",wheat; [8],0
same,"Plant response rating, Wheat",wheat; [9],0
same,Wheat plant response rating,wheat; [10],0
same,Wheat plant response rating,wheat; [11],0
same,Wheat plant response rating,wheat; [12],0
same,"Plant response rating, Wild oat",wild oat; [3],40
same,"Plant response rating, Wild oat",wild oat; [4],50
same,Rape plant response rating,rape; [5],0
same,Rape plant response rating,rape; [6],0
same,Rape plant response rating,rape; [7],0
same,"Plant response rating, Rape",rape; [8],0
same,"Plant response rating, Rape",rape; [9],0
same,Rape plant response rating,rape; [10],0
same,Rape plant response rating,rape; [11],0
same,Rape plant response rating,rape; [12],2
same,"Plant response rating, Green foxtail","green foxtail; Rate 250 g/ha, 0 to 100 scale",30
same,"Plant response rating, Green foxtail",green foxtail; [3],55
same,"Plant response rating, Green foxtail",green foxtail; [4],60
same,"Plant response rating, Blackgrass","blackgrass; Rate 250 g/ha, 0 to 100 scale",10
same,"Plant response rating, Blackgrass",blackgrass; [3],20
same,"Plant response rating, Blackgrass",blackgrass; [4],40
same,"Plant response rating, I. Ryegrass","Italian ryegrass; Rate 250 g/ha, 0 to 100 scale",40
same,"Plant response rating, I. Ryegrass",Italian ryegrass; [3],30
same,"Plant response rating, I. Ryegrass",Italian ryegrass; [4],50
same,Morningglory plant response rating,morningglory; [5],0
same,Morningglory plant response rating,morningglory; [6],2
same,Morningglory plant response rating,morningglory; [7],0
same,"Plant response rating, Morningglory",morningglory; [8],0
same,"Plant response rating, Morningglory",morningglory; [9],0
same,Morningglory plant response rating,morningglory; [10],0
same,Morningglory plant response rating,morningglory; [11],2
same,Morningglory plant response rating,morningglory; [12],6
same,"Plant response rating, Barley (winter)","winter barley; Rate 250 g/ha, 0 to 100 scale",20
same,"Plant response rating, Barley (winter)",winter barley; [3],40
same,"Plant response rating, Barley (winter)",winter barley; [4],40
same,Ducksalad plant response rating,duck salad; [5],0
same,Ducksalad plant response rating,"duck salad; Rate 125 g/ha, Postemergence section (flood test species), scale 0 to 10, 0 no effect, 10 complete control",0
same,Ducksalad plant response rating,"duck salad; Rate 500 g/ha, listed under Postemergence (flood test species), scale 0 to 10, 0 no effect, 10 complete control",0
same,Ducksalad plant response rating,"duck salad; flood test, listed under Postemergence, Rate 250 g/ha, scale 0 to 10, 0 no effect, 10 complete control",0
CCCn1c(=O)on(C(=O)N(c2ccc(F)cc2)C(C)C)c1=O [Compound 91],"Plant response rating, Wheat (winter)",winter wheat [1]; [13],0
same,"Plant response rating, Wheat (winter)","winter wheat [1]; Rate 62 g/ha, 0 to 100 scale",10
same,"Plant response rating, Wheat (winter)",winter wheat [2]; [13],10
same,"Plant response rating, Wheat (winter)",winter wheat [2]; [14],40
same,Wheat plant response rating,wheat; [5],1
same,Wheat plant response rating,wheat; [15],1
same,Wheat plant response rating,wheat; [7],3
same,Wheat plant response rating (0 to 10 scale),wheat; [16],4
same,"Plant response rating, Wheat",wheat; [9],4
same,Wheat plant response rating,wheat; [10],6
same,"Plant response rating, Wheat","wheat; Rate 250 g/ha, Postemergence, scale 0 to 10, 0 is no effect, 10 is complete control",4
same,Wheat plant response rating,wheat; [12],6
same,"Plant response rating, Wild oat",wild oat; [13],40
same,"Plant response rating, Wild oat",wild oat; [14],60
same,Rape plant response rating,rape; [5],2
same,Rape plant response rating,rape; [15],3
same,Rape plant response rating,rape; [6],4
same,Rape plant response rating,rape; [7],7
same,"Plant response rating, Rape",rape; [8],8
same,"Plant response rating, Rape",rape; [9],10
same,Rape plant response rating,rape; [10],10
same,Rape plant response rating,rape; [12],10
same,"Plant response rating, Green foxtail",green foxtail; [13],60
same,"Plant response rating, Green foxtail",green foxtail; [14],80
same,"Plant response rating, Blackgrass",blackgrass; [13],20
same,"Plant response rating, Blackgrass",blackgrass; [14],60
same,"Plant response rating, I. Ryegrass",Italian ryegrass; [13],40
same,"Plant response rating, I. Ryegrass",Italian ryegrass; [14],40
same,Morningglory plant response rating,morningglory; [5],7
same,Morningglory plant response rating,morningglory; [15],7
same,Morningglory plant response rating,morningglory; [6],8
same,Morningglory plant response rating,morningglory; [7],0
same,"Plant response rating, Morningglory",morningglory; [8],0
same,"Plant response rating, Morningglory",morningglory; [9],4
same,Morningglory plant response rating,morningglory; [10],6
same,Morningglory plant response rating,morningglory; [12],9
same,"Plant response rating, Barley (winter)",winter barley; [13],20
same,"Plant response rating, Barley (winter)",winter barley; [14],40
CCc1cccc(C)c1-n1c(=O)on(C(=O)N(c2ccc(F)cc2)C(C)C)c1=O [Compound 201],Wheat (winter) plant response rating (0 to 100 scale),winter wheat [2]; Rate 250 g/ha,40
same,"Plant response rating, Wheat (winter)",winter wheat [2]; [3],40
same,Wheat plant response rating,wheat; [17],0
same,Wheat plant response rating,wheat; [18],0
same,Wheat plant response rating,wheat; [10],0
same,"Plant response rating, Wheat",wheat; [19],2
same,Wheat plant response rating,wheat; [20],0
same,Wheat plant response rating,wheat; [21],0
same,"Plant response rating (0 to 10; 0 is no effect, 10 is complete control), Wheat","wheat; Rate 250 g/ha, Postemergence",0
same,Wild oat plant response rating (0 to 100 scale),wild oat; Rate 250 g/ha,50
same,"Plant response rating, Wild oat",wild oat; [3],40
same,Rape plant response rating,rape; [17],0
same,Rape plant response rating (0 to 10 scale),rape; [16],0
same,Rape plant response rating,rape; [18],0
same,Rape plant response rating,rape; [10],0
same,"Plant response rating, Rape",rape; [19],0
same,Rape plant response rating,rape; [20],0
same,Rape plant response rating,rape; [21],0
same,"Plant response rating (0 to 10; 0 is no effect, 10 is complete control), Rape","rape; Rate 250 g/ha, Postemergence",0
same,Rape plant response rating,rape; [22],0
same,Green foxtail plant response rating (0 to 100 scale),green foxtail; Rate 250 g/ha,50
same,"Plant response rating, Green foxtail",green foxtail; [3],65
same,Blackgrass plant response rating (0 to 100 scale),blackgrass; Rate 250 g/ha,30
same,"Plant response rating, Blackgrass",blackgrass; [3],50
same,I. Ryegrass plant response rating (0 to 100 scale),Italian ryegrass; Rate 250 g/ha,50
same,"Plant response rating, I. Ryegrass",Italian ryegrass; [3],60
same,Morningglory plant response rating,morningglory; [17],0
same,Morningglory plant response rating (0 to 10 scale),morningglory; [16],0
same,Morningglory plant response rating,morningglory; [18],0
same,Morningglory plant response rating,morningglory; [10],0
same,"Plant response rating, Morningglory",morningglory; [19],0
same,Morningglory plant response rating,morningglory; [20],1
same,Morningglory plant response rating,morningglory; [21],1
same,"Plant response rating (0 to 10; 0 is no effect, 10 is complete control), Morningglory","morningglory; Rate 250 g/ha, Postemergence",1
same,Morningglory plant response rating,morningglory; [22],3
same,Barley (winter) plant response rating (0 to 100 scale),winter barley; Rate 250 g/ha,0
same,"Plant response rating, Barley (winter)",winter barley; [3],20
same,Ducksalad plant response rating,"duck salad; Rate 62 g/ha, headed Pre-emergence (flood test species), scale 0 to 10 (0 no effect, 10 complete control)",0
same,Ducksalad plant response rating,"duck salad; Rate 125 g/ha, Pre-emergence, flood test species, scale 0 to 10 where 0 is no effect and 10 is complete control",0
same,Ducksalad plant response rating,"duck salad; Rate 250 g/ha, Pre-emergence, flood-test species, scale 0 to 10, 0 is no effect, 10 is complete control",0
same,"Plant response rating, Ducksalad","duck salad; Rate 500 g/ha, headed Pre-emergence (flood test species), scale 0 to 10 (0 no effect, 10 complete control)",2
